Literature values, collected in patent publication US20260102372A1, “NEW FORMULATIONS FOR MENTAL DISORDERS OR MENTAL ENHANCEMENT” (TACTOGEN INC, priority 2023, published 2026).

Tests used:
PTSD = conditions: MDMA arm
[1] = pooled Phase 2 trials
[2] = not given; remark: listed apart in the source
[3] = target: cytochrome p450 isozyme 2D6 (CYP2D6) (Homo sapiens, UniProt P10635)
[4] = nonhuman animals

Sequence of cytochrome p450 isozyme 2D6 (CYP2D6) (P10635 whole entry): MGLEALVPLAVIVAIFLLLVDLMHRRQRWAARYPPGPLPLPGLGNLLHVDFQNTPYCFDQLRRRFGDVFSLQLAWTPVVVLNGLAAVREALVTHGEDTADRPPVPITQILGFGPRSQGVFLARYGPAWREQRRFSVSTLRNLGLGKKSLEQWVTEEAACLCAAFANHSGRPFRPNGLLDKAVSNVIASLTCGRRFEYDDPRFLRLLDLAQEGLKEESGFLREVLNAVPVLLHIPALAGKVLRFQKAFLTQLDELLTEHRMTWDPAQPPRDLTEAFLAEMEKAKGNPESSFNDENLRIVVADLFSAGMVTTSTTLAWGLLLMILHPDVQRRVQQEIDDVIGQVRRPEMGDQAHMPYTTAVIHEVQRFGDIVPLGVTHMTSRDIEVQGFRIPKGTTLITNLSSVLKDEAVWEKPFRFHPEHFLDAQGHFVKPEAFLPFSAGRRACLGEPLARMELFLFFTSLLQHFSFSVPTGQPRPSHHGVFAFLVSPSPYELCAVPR

CNC(C)Cc1ccc2c(c1)OCO2 (stereo not shown) [MDMA, [1-(2H-1,3-benzodioxol-5-yl)propan-2-yl](methyl)amine]
participants with sufficient improvement that they were no longer diagnosable with PTSD (PTSD; first of two Phase 3 trials (Mitchell et al. 2021)): one-third
participants improved (PTSD; first of two Phase 3 trials, MDMA-assisted therapy for PTSD (Mitchell et al. 2021)): 88%
duration of acute psychological and emotional effects (average) (after 75 or 125 mg MDMA, standard deviation 1.3 hours (Vizeli & Liechti 2017)): 4.2 hours
time by which acute emotional effects have largely resolved (after administration of MDMA): ≤ 8 h
nausea occurred in participants ([1]; 29 of 72 participants (Mithoefer et al. 2019)): 40.3%
anxiety occurred in participants ([1]; 52 of 72 participants (Mithoefer et al. 2019)): 72.2%
half-life in plasma [2]: seven to nine
CYP2D6 interaction [3]: both a substrate and inhibitor
markers of serotonergic functioning (brain serotonin, tryptophan hydroxylase, serotonin transporter density) [4]: decreases
measures of oxidative stress [4]: increases
